Source: patent publication US20250255850A1, “PHARMACEUTICAL COMPOSITIONS FOR TREATING NEUROLOGICAL CONDITIONS” (YISSUM RESEARCH DEVELOPMENT COMPANY OF THE HEBREW …, priority 2021, published 2025)
≈ marks a conversion by molar mass, not a printed value.

Key:
[1] = Solubility of 7-NI in PBS; assay type: physicochemical; conditions: phosphate buffer (PBS), aqueous buffer; 10 mM phosphate buffer pH 7.2
SHANK3 mutant mice = assay: Three-chamber sociability test, SHANK3 mutant mice; assay type: in vivo, mouse
Procedure: (§1) Three-chambered sociability test (see, FIG. 4B): Sociability and preference for social novelty and social recognition were tested in a three-chambered apparatus. The subjected mouse was first placed in the central, neutral chamber and allowed to explore for 10 minutes with all the doors closed. Next, doors were opened and the mouse was allowed to freely explore the other two empty chambers (1 and 2) for an additional 10 minutes. Lack of side preference was confirmed during this habituation.
(§2) Two cylindrical wire cages were placed, one in chamber 1 and the other in chamber 2. For the sociability test, the test animal was introduced to the middle chamber and allowed to adjust for 5 minutes. Then, an unfamiliar mouse was introduced into a wire cage in one of the side-chambers, and the other side-chamber remained empty. The time spent by the test mouse exploring the wire cage with an unfamiliar mouse inside was recorded for 5 minutes.
Next, to examine social memory, novel mice is introduced to the empty cage and the tested mice is examined whether they are interested in the novel mice compared to the familiar.
A dose dependent study was conducted to determine the optimal dose that may produce the greatest effect on mice behavior. The SHANK3 mutant mice (n=5 for each group) were treated with the 7-NI (i.p) at doses of 0, 20, 50, and 80 mg/kg. This was followed by a set of behavioral tests to assess the proper dose of 7-NI that can reverse the autistic phenotypes observed in this model.
A three-chamber sociability test was conducted to evaluate the interest of mice in engaging in social interaction with a stranger mouse, as described hereinabove and shown in FIG. 4B. […] Comparing to the 50 mg/kg, although statistically the difference is not significant, the 80 mg/kg-treated group spent more time interacting with the stranger mouse.
A 100 μL injection of the poly(sebacic acid-ricinoleic acid) (PSARA) gel formulation with 7NI was used to evaluate its effect in reversing ASD-like behaviors in SHANK3 mice. […]

SH-SY5Y cells [2] = assay: Nitrite (Griess) assay in SH-SY5Y cells; assay type: cell-based, human; conditions: 7-NI 100 μM 24 hours or 20 nM nNOS siRNA 24 hours
Procedure: (§3) Human NB SH-SY5Y cells were obtained from the American Type Culture Collection (ATCC) and maintained in Dulbecco's modified Eagle's medium (DMEM) and Ham's F-12 (1:1) supplemented with 10% fetal bovine serum, 2 mM L-glutamine, and 100 U/ml penicillin-G/100 […] streptomycin in a humidified atmosphere (37° C., 5% CO2). Cells were plated onto 25 cm^2 and 75 cm^2 plates at a density of 7.0×10^5 and 2.1×10^6 cells/cm^2 respectively for Western blotting (WB) and 1×10^5 for immunofluorescence. The SH-SY5Y cells were treated with 100 μM 7-nitroindazole (7-NI) for 24 hours (Fujibayashi et al., 2015). This concentration was confirmed in a dose-response experiment (FIG. 14A) using an MTT viability assay.
(§4) SH-SY5Y cells were plated in 6 well plates, as well as on 22 mm^2 coverslips at a density of 6.0×10^4 cells/cm^2 and transfected with 20 nM nNOS siRNA (NOSIHSS1072, Invitrogen) for 24 hours, with the use of Lipofectamine RNAi MAX (56530, Invitrogen) according to the manufacturer's protocol. Then cells were washed with phosphate-buffered saline (PBS) and harvested for WB and fixed for immunofluorescence (Fujibayashi et al., 2015).
Released NO was measured with Griess assay Kit (Sigma-Aldrich, Cat. No. 23479) using the manufacturer's instructions.

SH-SY5Y cells [3] = assay: Western blot of 3-nitrotyrosine, mTOR signaling pathway components and synaptophysin; assay type: cell-based, human
Procedure: as §3, §4
Cells were lysed in ice-cold RIPA buffer containing 50 mM Tris-HCl, 1% Nonidet P-40, 0.25% sodium deoxycholate, 150 mM NaCl, protease-, and phosphatase inhibitor cocktails, pH 7.4. After sonication, the lysates were centrifuged at 17,000 g for 30 minutes at 4° C., and the supernatant was collected. The protein concentrations were determined with the BCA protein assay. Proteins were resolved by SDS-PAGE, transferred to a PVDF membrane, and probed with the following antibodies: anti-pMTOR (rabbit, diluted 1:1000), anti-mTOR (rabbit, diluted 1:1000), anti-TSC2 (rabbit, diluted 1:1000), anti-nNOS (rabbit, diled 1:1000), anti-pAKT (rabbit, diluted 1:1000), anti-AKT (rabbit, diluted 1:1000), anti-pRPS6 (rabbit, diluted 1:1000), anti-RPS6 (mouse, diluted 1:1000), anti-synaptophysin (mouse, diluted 1:1000), anti-β-actin (rabbit, diluted 1:1000), anti-3-Nitrotyrosine (rabbit, diluted 1:5000) from Abcam. All primary antibodies, except anti-3-Nitrosine, were purchased from Cell Signaling Technology. The blots were then visualized using an enhanced chemiluminescence (ECL) system (Choi et al., 2018).

[4] = tested on: Mutant mice (CNTNAP2 and SHANK3 mouse models); assay: Sociability test, 7-NI-treated mutant mice (Example 3); assay type: in vivo; conditions: 7-NI IP 80 mg/kg/day for 7 days; mutant mice vs vehicle
Procedure: Behavioral testing started after 2 hours of treatment.
as §1, §2
7-nitroindazole (7-NI) is a selective inhibitor of neuronal nitric oxide synthase. Mutant mice were administered with 7-NI […] (IP), 80 mg/kg/day for 7 days, as described hereinabove. […]

3-nitrotyrosine = assay: Confocal microscopy of 3-nitrotyrosine in cortical neurons, SHANK3 model mice; assay type: in vivo, mouse; conditions: cortical region, compared to neurons of untreated mice
Procedure: FIGS. 3G-H present confocal microscopy images (FIG. 3G) and a quantitative bar graph (FIG. 3H) showing nitro-tyrosine in the cortical region of neurons of wild-type mice (WT), SHANK3 model mice (M1) and SHANK3 model mice treated with 7-NI (M1+7-NI).
3-nitrotyrosine levels in were also evaluated by confocal microscopy of the cortical region in neurons of the tested mice, and the obtained data is presented in FIGS. 3G and 3H.

[5] = cited from earlier work
[6] = 7-NI 100 μM 24 hours or nNOS silencing

SMILES: O=[N+]([O-])c1cccc2cn[nH]c12 [7-NI, 7-nitroindazole]
- solubility [1]: 140 µg/mL (≈ 858 µM)
- time interacting with the stranger mouse (first session) (SHANK3 mutant mice; 7-NI 80 mg/kg compared to 20 mg/kg): spent significantly more time interacting with the stranger mouse
- time interacting with the novel mouse (S2) (second session) (SHANK3 mutant mice; 7-NI 80 mg/kg compared to lower doses): spent more time interacting with the novel mouse (S2)
- dose yielding the greatest reversal of the autistic phenotypes (SHANK3 mutant mice; doses 0, 20, 50, 80 mg/kg i.p.): 80 mg/kg
- nitrite content (Griess assay) (SH-SY5Y cells [2]): reduction of nitrite content
- levels of synaptophysin (Syp, Western blot) (SH-SY5Y cells [3]; 7-NI 100 μM 24 hours or genetic ablation of nNOS): significantly decreased the levels of synaptophysin
- 3-Ntyr levels (Western blot) (SH-SY5Y cells [3]; 7-NI 100 μM 24 hours or nNOS knockdown): halved
- levels of TSC-2 (Western blot) (SH-SY5Y cells [3]; [6]): significant increase in the levels of TSC-2
- phosphorylation of RPS6 (Western blot) (SH-SY5Y cells [3]; [6]): reduced
- phosphorylation of mTOR (Western blot) (SH-SY5Y cells [3]; [6]): decrease in phosphorylation of mTOR
- phosphorylation of protein kinase-B (AKT) (Western blot) (SH-SY5Y cells [3]; [6]): reduced
- time interacting with the stranger cage (sociability test) [4]: spent significantly more time interacting with the stranger cage
- reduction of 3-nitrotyrosine levels in the neurons (3-nitrotyrosine): about 50%
- solubility in aqueous medium [5]: very low solubility
